Assay [1] deals with glioblastoma that relapsed after surgery and on which the standard therapy failed. As to the kind of experiment: Tumor inhibition rate in animal model of glioblastoma. The class given is in vivo, rats. The conditions noted are these: for Tumor inhibition rate (%) / Tumor weight: 5th day after drug-withdrawal. As for the experimental part:
(§1) 1.1 Cell culture: The pathological tissue for cell culture was a tissue sample removed surgically from high-grade brain tumor that relapsed after surgery and on which the standard therapy failed. Glioblasts cells, high-grade anaplastic astrocytoma cells, high-grade anaplastic oligodendrocytoma cells, high-grade anaplastic oligoastrocytoma cells, and brain tumor cells with unclear pathological types, obtained by separation and culture of pathological tissue, were seeded in DMEM complete culture medium containing 10% FBS and routinely incubated in a 37° C., 5% carbon dioxide incubator under saturated humidity. TMZ was dissolved in DMSO solution, and the mass concentration of the stock solution was 100 mg/mL. Tumor cells in the logarithmic growth phase were diluted to obtain a cell suspension at 1×10^5 cells/mL, and the initial inducer dose 0.25 μg/mL of TMZ was added after routinely culturing for 24 h. The culture was continued for 15-20 days, and after stabilization of cell growth, the induced concentration of the drug was doubled, then the cells were further cultured for 15-20 d at each induced concentration. Thus, the final concentration of TMZ was 16.00 μg/mL, and various pathological types of cell suspensions were obtained.
The cell suspension obtained in step 1 was inoculated into rats in situ, to prepare animal models of glioblastoma that relapsed after surgery and on which the standard therapy failed, and the animals were divided into test groups listed in the following table. […] The tumor inhibition rate was calculated.

The subject of assay [2] is high-grade anaplastic oligoastrocytoma that relapsed after surgery and on which the standard therapy failed. As to the kind of experiment: Tumor inhibition rate in animal model of high-grade anaplastic oligoastrocytoma. The class given is in vivo, rats. The settings on record: for Tumor inhibition rate (%) / Tumor weight: 5th day after drug-withdrawal. On the procedure: as §1
The cell suspension obtained in step 1 was inoculated into rats in situ, to prepare animal models of high-grade anaplastic oligoastrocytoma that relapsed after surgery and on which the standard therapy failed, and the animals were divided into test groups listed in the following table. […] The tumor inhibition rate was calculated.

In assay [3] the test system is high-grade anaplastic astrocytoma that relapsed after surgery and on which the standard therapy failed. As to the kind of experiment: Tumor inhibition rate in animal model of high-grade anaplastic astrocytoma. The class given is in vivo, rats. The conditions noted are these: for Tumor inhibition rate (%) / Tumor weight: 5th day after drug-withdrawal. As for the experimental part:
as §1
The cell suspension obtained in step 1 was inoculated into rats in situ, to prepare animal models of high-grade anaplastic astrocytoma that relapsed after surgery and on which the standard therapy failed, and the animals were divided into test groups listed in the following table. […] On the 5th day after drug-withdrawal, the size of the in situ tumor in the rat brain was observed, and the tumor was weighed. The tumor inhibition rate was calculated.

For assay [4], the system named is brain tumor with unclear pathological types that relapsed after surgery and on which the standard therapy failed. As to the kind of experiment: Tumor inhibition rate in animal model of brain tumors with unclear pathological types. The class given is in vivo, rats. The conditions noted are these: for Tumor inhibition rate (%) / Tumor weight: 5th day after drug-withdrawal. On the procedure: as §1
The cell suspension obtained in step 1 was inoculated into rats in situ, to prepare animal models of brain tumor with unclear pathological types that relapsed after surgery and on which the standard therapy failed, and the animals were divided into test groups listed in the following table. […] On the 5th day after drug-withdrawal, the size of the in situ tumor in the rat brain was observed, and the tumor was weighed. The tumor inhibition rate was calculated.

The subject of assay [5] is high-grade glioma relapsed after failure of standard treatment. As to the kind of experiment: Clinical trial of chlorogenic acid for injection, effectiveness by RANO standard and survival. The class given is in vivo, patients. On the procedure:
A total of 23 subjects completed the test in this trial, including 5 patients with grade III gliomas and 18 patients with grade IV gliomas. […] The subjects included in this trial were all patients with high-grade glioma who relapsed after surgery and didn't response to the standard therapy. The standard treatment was chemotherapy and radiotherapy. […] Ineffective means tumor progression. […] The effectiveness evaluation was performed according to the RANO standard, and the specific RANO standards are as follows: [table] […] A total of 26 subjects were enrolled in the trial, 3 cases were released early, and 23 cases can be counted: […]

Assay [6] relates to high-grade anaplastic oligodendrocytoma that relapsed after surgery and on which the standard therapy failed. As to the kind of experiment: Tumor inhibition rate in animal model of high-grade anaplastic oligodendrocytoma. The class given is in vivo, rats. The settings on record: for Tumor inhibition rate (%) / Tumor weight: 5th day after drug-withdrawal. On the procedure: as §1
The cell suspension obtained in step 1 was inoculated into rats in situ, to prepare animal models of high-grade anaplastic oligodendrocytoma that relapsed after surgery and on which the standard therapy failed, and the animals were divided into test groups listed in the following table. […] The tumor inhibition rate was calculated.

Where [7] appears, read: dose 35 mg/kg i.p. daily 10 days.

The results in this text go back to patent US20210161866A1, “DRUG FOR USE IN COMBINATION, AND USE THEREOF FOR PREPARING DRUGS FOR TREATMENT OF HIGH-GRADE BRAIN TUMORS IN RESPONSE TO INEFFECTIVE STANDARD TREATMENT FOR POSTOPERATIVE RECURRENCE” (SICHUAN JIUZHANG BIOLOGICAL SCIENCE AND TECHNOLOGY CO., LTD., priority 2018, published 2021).

As for `O=C(/C=C/c1ccc(O)c(O)c1)O[C@@H]1C[C@](O)(C(=O)O)C[C@@H](O)[C@H]1O` [Chlorogenic acid, chlorogenic acid], the “Tumor inhibition rate (%)” value is on record as 52.2% in assay [1] (setting [7]); 47.0% in assay [2] (setting [7]); 50.2% in assay [3] (setting [7]); 44.5% in assay [4] (setting [7]); 52.6% in assay [6] (setting [7]). Moreover, the “therapeutic effect in words” value in assay [1] (summary of the glioblastoma model table), in assay [2] (summary of the anaplastic oligoastrocytoma model table), in assay [3] (summary of the anaplastic astrocytoma model table), in assay [4] (summary of the table for brain tumors with unclear pathological types) and in assay [6] (summary of the anaplastic oligodendrocytoma model table) was “significant inhibitory effect” in each case. For the same compound, the Tumor weight in assay [3] (setting [7]) came out at 1.12 ± 0.10; in assay [4] (setting [7]) it was 1.21 ± 0.11. Further, the response rate in assay [5] (9 survival subjects with grade IV glioblastoma, 1 cycle) is 88.9%; in assay [5] (nine dead subjects with grade IV glioma, one cycle) it was 11.1%.
Take `Cn1nnc2c(C(N)=O)ncn2c1=O` [temozolomide]: the “Tumor inhibition rate (%)” value in assay [1] (dose 10 mg/kg oral 5 days) stood at 14.6%; in assay [1] (dose 20 mg/kg oral 5 days), 24.1%; in assay [2] (dose 10 mg/kg oral 5 days), 13.1%; in assay [2] (dose 20 mg/kg oral 5 days), 20.2%; in assay [3] (dose 10 mg/kg oral 5 days), 13.3%; in assay [3] (dose 20 mg/kg oral 5 days), 20.9%. Besides, the “Tumor inhibition rate (%)” value in assay [4] (dose 10 mg/kg oral 5 days) is listed as 16.0%; in assay [4] (dose 20 mg/kg oral 5 days) it was 25.7%; in assay [6] (dose 10 mg/kg oral 5 days), 15.5%; in assay [6] (dose 20 mg/kg oral 5 days), 22.5%. For the same compound, the Tumor weight in assay [1] (dose 10 mg/kg oral 5 days) was 1.75 ± 0.14; in assay [1] (dose 20 mg/kg oral 5 days), 1.54 ± 0.10; in assay [2] (dose 10 mg/kg oral 5 days) it was 1.72 ± 0.14; in assay [2] (dose 20 mg/kg oral 5 days) it was 1.58 ± 0.12; in assay [3] (dose 10 mg/kg oral 5 days), 1.95 ± 0.18; in assay [3] (dose 20 mg/kg oral 5 days) it was 1.78 ± 0.11. Moreover, the Tumor weight in assay [4] (dose 10 mg/kg oral 5 days) came to 1.83 ± 0.13; in assay [4] (dose 20 mg/kg oral 5 days) it was 1.62 ± 0.14; in assay [6] (dose 10 mg/kg oral 5 days) it was 1.80 ± 0.15; in assay [6] (dose 20 mg/kg oral 5 days), 1.65 ± 0.14.
